# Source: patent EP0620225B1, “Cephalosporin derivatives” (Basilea Pharmaceutica AG, priority 1993, dated 1994)
# What was measured:
# Escherichia coli 25922 = experiment: Efficacy against systemic infections (septicemia) in mice; assay type: in vivo; details: 96 h, survival day 4
# Method in brief: (§1)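 Swiss albino mice (16–20 g) infected i.p. with 4–10× the 48-h LD50 of each strain; compound given p.o. or s.c. at 1 and 3 h post-challenge, plus 5 h for P. aeruginosa BA. Five mice per group; ED50 (mg/kg) by probit analysis of day-4 survival.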
# [1] = system: Streptococcus pyogenes 15; experiment: as above; assay type: in vivo; details: 96 h, Streptococcus pyogenes 15, po (orally) 1 and 3 h after challenge, survival day 4
# Method in brief: as §1
# E.faecalis [2] = experiment: In vitro activity against selected species (MIC50, MIC90, range); assay type: cell-based; details: Enterococcus faecalis, medium IsoB
# S.aureus MRSA = experiment: as above; assay type: cell-based; details: Staphylococcus aureus, medium MHA (Mueller Hinton Agar) +NaCl
# Procedure: (§2) In vitro activity was determined by minimum inhibitory concentration in a microorganism spectum by the agar dilution method in Mueller Hinton agar.
# E.faecalis [3] = experiment: as above; assay type: cell-based; details: Enterococcus faecalis, medium MHA
# Procedure: as §2
# E.faecium = experiment: In vitro activity against selected species (MIC50, range); assay type: cell-based; details: Enterococcus faecium, medium MHA
# Procedure: as §2
# S.aureus Smith = experiment: Efficacy against systemic infections (septicemia) in mice; assay type: in vivo; details: Staphylococcus aureus, 96 h, sc 1 and 3 h after challenge, survival day 4
# Method in brief: as §1
# S.pneumoniae PEN-R = experiment: In vitro activity against selected species (MIC50, MIC90, range); assay type: cell-based; details: Streptococcus pneumoniae; for MIC: MIC range
# S.viridans group = experiment: as above; assay type: cell-based; details: Streptococcus viridans
# M.catarrhalis = experiment: as above; assay type: cell-based; details: Moraxella catarrhalis, medium IsoB
# S.aureus MSSA = experiment: as above; assay type: cell-based; details: Staphylococcus aureus, medium MHB (Mueller Hinton Broth)
# P.asaccharolyticus 29743 = experiment: Antibacterial spectrum (MIC), agar dilution; assay type: cell-based; details: Peptoniphilus asaccharolyticus, read-out: MIC
# Procedure: as §2
# S.aureus 734 MRSA = experiment: Antibacterial spectrum (MIC), agar dilution; assay type: cell-based; details: Staphylococcus aureus, read-out: MIC
# Procedure: as §2
# S.aureus 6538 = experiment: Antibacterial spectrum (MIC), agar dilution; assay type: cell-based; details: Staphylococcus aureus, read-out: MIC
# Procedure: as §2
# B.fragilis ATCC25285 = experiment: Antibacterial spectrum (MIC), agar dilution; assay type: cell-based; details: Bacteroides fragilis, read-out: MIC
# Procedure: as §2
# M.catarrhalis RA21 = experiment: Antibacterial spectrum (MIC), agar dilution; assay type: cell-based; details: Moraxella catarrhalis, read-out: MIC
# Procedure: as §2
# K.pneumoniae 418 = experiment: Antibacterial spectrum (MIC), agar dilution; assay type: cell-based; details: Klebsiella pneumoniae, read-out: MIC
# Procedure: as §2
# S.agalactiae QK44 = experiment: Antibacterial spectrum (MIC), agar dilution; assay type: cell-based; details: Streptococcus agalactiae, read-out: MIC
# Procedure: as §2
# P.mirabilis 2117 = experiment: Antibacterial spectrum (MIC), agar dilution; assay type: cell-based; details: Proteus mirabilis, read-out: MIC
# Procedure: as §2
# S.marcescens 69438 = experiment: Antibacterial spectrum (MIC), agar dilution; assay type: cell-based; details: Serratia marcescens, read-out: MIC
# Procedure: as §2
# N.meningitidis 69480 = experiment: Antibacterial spectrum (MIC), agar dilution; assay type: cell-based; details: Neisseria meningitidis, read-out: MIC
# Procedure: as §2
# S.pneumoniae Q19 = experiment: Antibacterial spectrum (MIC), agar dilution; assay type: cell-based; details: Streptococcus pneumoniae, read-out: MIC
# Procedure: as §2
# C.freundii 43 = experiment: Antibacterial spectrum (MIC), agar dilution; assay type: cell-based; details: Citrobacter freundii, read-out: MIC
# Procedure: as §2
# E.cloacae 908SSi = experiment: Antibacterial spectrum (MIC), agar dilution; assay type: cell-based; details: Enterobacter cloacae, read-out: MIC
# Procedure: as §2
# E.cloacae 908R = experiment: Antibacterial spectrum (MIC), agar dilution; assay type: cell-based; details: Enterobacter cloacae, read-out: MIC
# Procedure: as §2
# S.viridans group 016 = experiment: Antibacterial spectrum (MIC), agar dilution; assay type: cell-based; details: Streptococcus viridans, read-out: MIC
# Procedure: as §2
# M.morganii 6H-137 = experiment: Antibacterial spectrum (MIC), agar dilution; assay type: cell-based; details: Morganella morganii, 6H137, read-out: MIC
# Procedure: as §2
# S.pyogenes B15 = experiment: Antibacterial spectrum (MIC), agar dilution; assay type: cell-based; details: Streptococcus pyogenes, read-out: MIC
# Procedure: as §2
# H.influenzae 1 = experiment: Antibacterial spectrum (MIC), agar dilution; assay type: cell-based; details: Haemophilus influenzae, read-out: MIC
# Procedure: as §2
# Acinetobacter sp.51-156 = experiment: Antibacterial spectrum (MIC), agar dilution; assay type: cell-based; details: SP.51156, read-out: MIC
# Procedure: as §2
# X.maltophilia 1AC739 = experiment: Antibacterial spectrum (MIC), agar dilution; assay type: cell-based; details: Stenotrophomonas maltophilia, read-out: MIC
# Procedure: as §2
# C.difficile ZH1 = experiment: Antibacterial spectrum (MIC), agar dilution; assay type: cell-based; details: Clostridioides difficile, read-out: MIC
# Procedure: as §2
# C.freundii 902 = experiment: Antibacterial spectrum (MIC), agar dilution; assay type: cell-based; details: Citrobacter freundii, read-out: MIC
# Procedure: as §2
# P.aeruginosa 27853 = experiment: Antibacterial spectrum (MIC), agar dilution; assay type: cell-based; details: Pseudomonas aeruginosa, read-out: MIC
# Procedure: as §2
# P.vulgaris 1028 = experiment: Antibacterial spectrum (MIC), agar dilution; assay type: cell-based; details: Proteus vulgaris, read-out: MIC
# Procedure: as §2
# E.coli 25922 = experiment: Antibacterial spectrum (MIC), agar dilution; assay type: cell-based; details: Escherichia coli, read-out: MIC
# Procedure: as §2
# L.monocytogenes BK23 = experiment: Antibacterial spectrum (MIC), agar dilution; assay type: cell-based; details: Listeria monocytogenes, read-out: MIC
# Procedure: as §2
# E.faecalis 6 = experiment: Antibacterial spectrum (MIC), agar dilution; assay type: cell-based; details: Enterococcus faecalis, read-out: MIC
# Procedure: as §2
# [4] = Escherichia coli 25922, po (orally) 1 and 3 h after challenge
# [5] = medium IsoB (Isosensitest Broth)
smiles,measurement,setting,value
"C=CC1=C(C(=O)O)N2C(=O)[C@@H](NC(=O)/C(=N\OCC(=O)O)c3csc(N)n3)[C@H]2SC1 [Cefixime, reference compound]",ED50,Escherichia coli 25922; [4],0.5 mg/kg
same,ED50,[1],2 mg/kg
"Nc1nc(/C(=N/O)C(=O)N[C@@H]2C(=O)N3C(C(=O)O)=C(/C=C4\CCN(CC(F)(F)F)C4=O)CS[C@H]23)cs1 [E, [6R-[3(E),6α,7β(Z)]]-7-[[(2-Amino-4-thiazolyl)(hydroxyimino)-acetyl]amino]-3-[[1-(2,2,2-trifluoroethyl)-2-oxo-3-pyrrolidinylidene]-methyl]-8-oxo-5-thia-1-azabicyclo[4.2.0]oct-2-ene-2-carboxylic acid]",MIC,E.faecalis [2]; MIC range,0.25 to 2 µg/mL
same,MIC50,E.faecalis [2],0.5 µg/mL
same,MIC90,E.faecalis [2],2 µg/mL
same,MIC,S.aureus MRSA; MIC range,8 to 16 µg/mL
same,MIC50,S.aureus MRSA,8 µg/mL
same,MIC90,S.aureus MRSA,8 µg/mL
same,MIC,E.faecalis [3]; MIC range,1 to 2 µg/mL
same,MIC50,E.faecalis [3],1 µg/mL
same,MIC90,E.faecalis [3],2 µg/mL
same,MIC,E.faecium; MIC range,1 to 16 µg/mL
same,MIC50,E.faecium,4 µg/mL
same,ED50,Escherichia coli 25922; [4],3 mg/kg
same,ED50,"Escherichia coli 25922; Escherichia coli, E.coli 25922, sc 1 and 3 h after challenge",0.07 mg/kg
same,ED50,S.aureus Smith,< 1 mg/kg
same,MIC,S.pneumoniae PEN-R; [5],0.12 to 0.5 µg/mL
same,MIC,S.pneumoniae PEN-R; medium IsoB + 20% serum,0.25 to 0.5 µg/mL
same,MIC50,S.pneumoniae PEN-R; [5],0.25 µg/mL
same,MIC90,S.pneumoniae PEN-R; [5],0.5 µg/mL
same,MIC50,S.pneumoniae PEN-R; medium IsoB + 20% serum,0.5 µg/mL
same,MIC50,S.viridans group,2 µg/mL
same,MIC90,S.viridans group,2 µg/mL
same,MIC,S.viridans group; MIC range,0.12 to 4 µg/mL
same,MIC,M.catarrhalis; MIC range,1 to 16 µg/mL
same,MIC50,M.catarrhalis,4 µg/mL
same,MIC90,M.catarrhalis,16 µg/mL
same,MIC,S.aureus MSSA; MIC range,0.5 to 1 µg/mL
same,MIC50,S.aureus MSSA,1 µg/mL
same,MIC90,S.aureus MSSA,1 µg/mL
same,MIC,P.asaccharolyticus 29743,≤ 0.12 µg/mL
same,MIC,S.aureus 734 MRSA,8 µg/mL
same,MIC,S.aureus 6538,0.5 µg/mL
same,MIC,B.fragilis ATCC25285,8 µg/mL
same,MIC,M.catarrhalis RA21,16 µg/mL
same,MIC,K.pneumoniae 418,0.12 µg/mL
same,MIC,S.agalactiae QK44,0.25 µg/mL
same,MIC,P.mirabilis 2117,≤ 0.06 µg/mL
same,MIC,S.marcescens 69438,1 µg/mL
same,MIC,N.meningitidis 69480,≤ 0.06 µg/mL
same,MIC,S.pneumoniae Q19,≤ 0.06 µg/mL
same,MIC,C.freundii 43,4 µg/mL
same,MIC,E.cloacae 908SSi,0.25 µg/mL
same,MIC,E.cloacae 908R,16 µg/mL
same,MIC,S.viridans group 016,1 µg/mL
same,MIC,M.morganii 6H-137,≤ 0.06 µg/mL
same,MIC,S.pyogenes B15,≤ 0.06 µg/mL
same,MIC,H.influenzae 1,0.25 µg/mL
same,MIC,Acinetobacter sp.51-156,16 µg/mL
same,MIC,X.maltophilia 1AC739,> 32 µg/mL
same,MIC,C.difficile ZH1,8 µg/mL
same,MIC,C.freundii 902,0.12 µg/mL
same,MIC,P.aeruginosa 27853,16 µg/mL
same,MIC,P.vulgaris 1028,1 µg/mL
same,MIC,E.coli 25922,0.12 µg/mL
same,MIC,L.monocytogenes BK23,4 µg/mL
same,MIC,E.faecalis 6,1 µg/mL
